Measurements published in US7713943B2, “Further use of protein kinase N beta” (Silence Therapeutics Aktiengesellschaft (AG), priority 2002, dated 2010).
Entries after “also recorded” stand apart in the source; their conditions may differ. Marks after values point to notes of the source that are not given here.

Key:
PKNbeta = assay: Kinase activity and phosphorylation of recombinant PKN-beta from LY294002-treated HeLa cells; assay type: cell-based
Excerpt: Recombinant wildtype PKN-beta or derivatives of PKN-beta (as described in FIGS. 10-11) were transiently expressed in HeLa cells. Said derivatives were PKN-beta derivative TA and derivative KE as described in example 10 herein. The PKN-beta was modified in each case by a myc-tag as described above which allowed the precipitation of PKN-beta and its derivatives using an anti-Myc antibody.
For the assessment of the activity of PKN-beta an in vitro kinase activity using the immune precipitates was carried out as described above. Half of the precipitates were subjected to the in vitro kinase reaction, the second half was analyzed by Western-blotting using anti-phospho-PRK antibodies. The filter was stripped and reprobed using the anti-PKN-beta antiserum. Phospho-p70 S6 Kinase levels were analyzed from aliquots of cell lysates, that were withdrawn earlier, to confirm the efficacy of the LY294002 treatment even after only 3 h treatment. The anti-phospho p70 antibody was obtained from Cell signaling.

endogenous PKN-beta [1] = assay: Expression of endogenous PKN-beta after LY294002, Western blot, HeLa cells; assay type: cell-based; details: 10 μM LY294002, 48 h
Experimental: (§1) PC-3 cells were cultivated as described in example 1 herein. Said PC-3 cells are PTEN −/−. HeLa cells were obtained from the American Type Culture Collection (ATCC) and grown as described in Sternberger et al. (2002). Transfections were carried out in 10-cm plates (at 30% to 50% confluency) using Fugene 6 (Roche, Nutley, N.J.) according to the manufacturer's instructions. Cultivated cells were trypsinated and harvested following stopping the trypsin effect by medium. Both cell types, i.e. PC-3 cells and HeLa cells were treated for the indicated times with 10 μM LY294002 or DMSO, whereby DMSO was used as the solvent for LY294002 and, because of this, as negative control. The resulting extracts were fractionated by SDS-PAGE and subsequently analysed by Western-blotting. The levels of the indicated proteins such as p110, which served as a loading control, endogenous PKN-beta and phosphorylated Akt were detected using the respective antibodies. Phosphorylated Akt (P*-Akt) serves as a control for the efficacy of the LY294002-mediated treatment.

endogenous PKN-beta [2] = assay: Expression of endogenous PKN-beta after LY294002, Western blot, PC-3 cells; assay type: cell-based, human
Experimental: as §1

GST-GSK3 fusion protein = assay: Non-radioactive in vitro kinase assay, anti-phospho GSK3alpha Western blot; assay type: biochemical; details: immune precipitates, 200 μM rATP, FIG. 11A
Experimental: The second half of the immune precipitates was incubated with 1 μg GST-GSK3 fusion protein (Cell Signaling Technology) as a phosphorylation substrate in the presence of 200 μM rATP. The reaction mixture was subsequently analyzed by 8-16% gradient SDS-PAGE and Western blotting using the anti-phospho GSK3alpha antibody (Cell Signaling Technology) (FIG. 11A).
The specificity of the in vitro phosphorylation reactions was controlled by analyzing kinase defective variants (e.g. containing mutations in the ATP binding site, see above) in parallel to active protein.
In a first step, the suitability of a non-radioactive screening formate was determined, whereby the various protein kinase N beta derivatives as already discussed in connection with example 10, were used for phosphorylating a suitable substrate. Such substrate may, for example, be MBP or a GSK3 peptide which is typically immobilised on a suitable carrier such as agarose- or sepharose beads or on plastic surfaces. In the present case and as depicted in FIG. 11A, the substrate is a GSK3-derived peptide fused to paramyosin. […] The phosphorylated substrate in the present case was detected by anti-phospho GSK3 alpha antibody (mentioned above).

[3] = system: MPB (myelin basic protein); assay: In vitro kinase activity of protein kinase N beta derivatives, MPB/MBP phosphorylation; assay type: biochemical; parameters: key to Activity: +: active; −: inactive; !: no “hyper activation” was observed as one might have expected from comparable mutations in other kinases (Morgan and Debond, 1994); details: for Activity: MPB substrate, FIG. 9
Experimental: The respective fragments were transiently epressed in HeLa cells. Their relative expression was determined by Western-blot analysis of Hela cell extracts using an anti-PKNbeta antibody.
MPB is myelin basic protein which is a standard in vitro phosphorylation substrate.
As may be taken from FIG. 9A apart from the full-length protein kinase N beta only the kinase domain in its otherwise wildtype form is active in phosphorylating MPB.
The PKNbeta-derived molecules were immune-precipitated from the cell extracts shown in FIG. 10 by using anti-tag antibodies. The immune precipitates were washed as described (Klippel et al., 1996) and divided in two halfs. One half was incubated with 5 μg MBP (UBI) as a phosphorylation substrate, 4 mM MgCl2 and gamma ^32P-ATP in a buffered solution for 10 min at room temperature. In addition, phosphatase inhibitors and inhibitors against unspecifically acting kinases were added as in Klippel et al., 1998. Incorporation of radioactive phosphate was detected by autoradiography after separating the reaction products by 16% SDS-PAGE (FIG. 11B).

[4] = LY294002 treatment, anti-phospho-PRK antibody
[5] = transient overexpression in HeLa cells

O=c1cc(N2CCOCC2)oc2c(-c3ccccc3)cccc12 [LY294002, 2-(4-morpholinyl)8-phenylchromone]
kinase activity of PKNbeta, phosphorylation of MBP (PKNbeta; 3 h of LY294002 treatment): visible | kinase activity of PKNbeta, phosphorylation of MBP (PKNbeta; 24 h of LY294002 treatment): almost completely inhibited | kinase activity of PKNbeta, phosphorylation of MBP (PKNbeta; LY294002 treatment of HeLa cells prior to lysis, FIG. 13): strong inhibition | phosphorylation of PKNbeta at position 718 (PKNbeta; [4]): compromised | phosphorylation status of PKN-beta derivative KE (PKNbeta; [4]): to some extent affected | endogenous PKNbeta expression (protein level) (endogenous PKN-beta [1]): reduced amounts can be detected | endogenous PKNbeta expression (protein level) (endogenous PKN-beta [2]; 10 μM LY294002, 24 h): visible reduction | endogenous PKNbeta expression (protein level) (endogenous PKN-beta [2]; 10 μM LY294002, 48 h): further reduced

Kinase domain comprising amino acids 535-889: protein kinase N beta derivative, kinase domain comprising amino acids 535-889
phosphorylation of GSK3-derived substrate (GST-GSK3 fusion protein): suitable to phosphorylate the substrate; also recorded: show activity | phosphorylation of MBP, 32P incorporation ([3]; immune precipitates, gamma 32P-ATP, autoradiography, FIG. 11B): show activity | phosphorylating MPB (FIG. 9A) [3, 5]: active | Activity [3, 5]: +*

TA718: kinase domain derivative, threonine at position 718 changed to alanine
Activity [3, 5]: −*

TD718: kinase domain derivative, threonine at position 718 changed to aspartic acid
Activity [3, 5]: −*!

TE718: kinase domain derivative, threonine at position 718 changed to glutamic acid
Activity [3, 5]: −*!
